The source made the active and inactive calls.

In series [1] the test system is Streptococcus sp. 'group A'. Description: Streptococcus pyogenes SK(-)GAS viability under kanamycin – luminescence, BacTiterGlo, confirmation, counter-screen for streptokinase expression inhibitor project, dose response (AID 1900). Format: functional, organism-based. For orientation: Counterscreens check selectivity or assay interference.
Another series concerns the target T1, Streptokinase A (Streptococcus pyogenes serotype M1, UniProt P10520).
T1 sequence (P10520 whole entry): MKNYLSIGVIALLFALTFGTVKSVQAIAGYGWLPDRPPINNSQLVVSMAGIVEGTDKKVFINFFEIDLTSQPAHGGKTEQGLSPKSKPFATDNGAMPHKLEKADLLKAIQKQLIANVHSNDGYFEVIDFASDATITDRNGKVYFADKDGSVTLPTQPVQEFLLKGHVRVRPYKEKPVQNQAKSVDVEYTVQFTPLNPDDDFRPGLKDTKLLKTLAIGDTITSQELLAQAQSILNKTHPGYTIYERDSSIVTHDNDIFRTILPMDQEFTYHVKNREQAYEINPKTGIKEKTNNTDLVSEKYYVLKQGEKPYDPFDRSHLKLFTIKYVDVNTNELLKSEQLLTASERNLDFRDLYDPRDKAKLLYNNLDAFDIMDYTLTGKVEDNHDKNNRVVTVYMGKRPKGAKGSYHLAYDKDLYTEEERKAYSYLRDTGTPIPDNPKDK
Description: viability-normalized secreted streptokinase activity reduction – plasminogen activation absorbance, OD405, dose response (AID 1914).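 Further: secreted streptokinase activity via plasminogen activation per viability signal from cell pellet.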 It counts as functional, Streptococcus pyogenes M1 GAS.

The test system of another series is Streptococcus. Briefly: GAS UMAA2166 growth inhibition – luminescence, BacTiterGlo, counter-screen for streptokinase expression inhibitor project, dose response (AID 1915).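 Further: potency for reduction of bacterial viability or growth.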 It counts as functional, organism-based.
The target of another series is Troponin, cardiac muscle (Homo sapiens, UniProt P19429+P45379+P63316). Briefly: Fluorescence-based biochemical high throughput dose response assay for activators of the calcium sensitivity of cardiac Regulated Thin Filaments (RTF). [Related pubchem assays (depositor defined):AID493008, AID493018, AID504382, AID504383]. It counts as protein-complex assay.
For series [2], the target named is Intestinal-type alkaline phosphatase (Mus musculus, UniProt P24822). Description: PubChem AID 488785. Format: functional.
The target of series [3] is T2, Alkaline phosphatase, tissue-nonspecific isozyme (Homo sapiens, UniProt P05186).
T2 sequence (P05186 whole entry): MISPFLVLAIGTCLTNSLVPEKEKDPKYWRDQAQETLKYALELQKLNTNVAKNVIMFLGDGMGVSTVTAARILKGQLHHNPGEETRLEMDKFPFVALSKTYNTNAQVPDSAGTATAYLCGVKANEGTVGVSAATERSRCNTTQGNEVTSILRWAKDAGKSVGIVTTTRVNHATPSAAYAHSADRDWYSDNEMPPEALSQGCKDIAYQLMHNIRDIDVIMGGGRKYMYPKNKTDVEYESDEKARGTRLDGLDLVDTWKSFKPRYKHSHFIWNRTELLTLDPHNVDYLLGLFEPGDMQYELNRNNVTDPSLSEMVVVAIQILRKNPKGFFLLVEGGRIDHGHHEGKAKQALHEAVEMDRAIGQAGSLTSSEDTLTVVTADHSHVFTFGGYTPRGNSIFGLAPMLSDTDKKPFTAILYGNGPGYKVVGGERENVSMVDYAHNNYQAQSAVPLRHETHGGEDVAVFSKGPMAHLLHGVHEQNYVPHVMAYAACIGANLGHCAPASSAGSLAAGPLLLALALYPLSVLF
Description: TNAP enzyme inhibition by screening hits, dose response, selectivity assay for mouse IAP inhibitor project, biochemical, human TNAP, uHTS hits (AID 488906). Format: functional.

The target of series [4] is Intestinal-type alkaline phosphatase (Homo sapiens, UniProt P09923). Briefly: inhibition of human intestinal alkaline phosphatase – biochemical, dose response (AID 488876). It counts as functional.
Series [5] concerns the target Delta-type opioid receptor (Homo sapiens, UniProt P41143). Description: Counterscreen for agonists of heterodimerization of the mu 1 (OPRM1) and delta 1 (OPRD1) opioid receptors: Luminescence-based cell-based high throughput dose response assay to identify agonists of OPRD1 homodimerization. [Related pubchem assays (depositor defined):AID504326, AID504355, AID504692, AID504904, AID504905]. It counts as functional.

The target of a further series is Mu-type opioid receptor (Homo sapiens, UniProt P35372). Description: Counterscreen for agonists of heterodimerization of the mu 1 (OPRM1) and delta 1 (OPRD1) opioid receptors: Luminescence-based cell-based high throughput dose response assay to identify agonists of OPRM1 homodimerization. It counts as functional.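 Further: U2OS cells expressing OPRM1 and beta-arrestin as split beta-galactosidase partners.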
Series [6] concerns the target 5-hydroxytryptamine receptor 5A (Homo sapiens, UniProt P47898). Description: Counterscreen for agonists of OPRM1-OPRD1 heterodimerization: luminescence-based cell-based high throughput dose response assay to identify agonists of 5-hydroxytryptamine (serotonin) 5A receptor (HTR5A). [Related pubchem assays (depositor defined):AID504326, AID504355, AID504692, AID504904, AID504905]. Format: functional.

The target of series [7] is G-protein coupled receptor 55 (Homo sapiens, UniProt Q9Y2T6). Description: inhibition of LPI-stimulated GPR55 beta-arrestin translocation – imaging, U2OS, beta-arrestin-GFP, LPI agonist, primary screen (AID 2013).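 Further: antagonist potency measured as reduced agonist-driven arrestin aggregation.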 Format: functional.
The target of series [8] is T3, Voltage-gated N-type calcium channel alpha-1B subunit/Amyloid beta A4 precursor protein-binding family A member 1 (Homo sapiens, UniProt Q00975+Q02410). It counts as protein assay.
In series [9] the target is T3, Voltage-gated N-type calcium channel alpha-1B subunit/Amyloid beta A4 precursor protein-binding family A member 1. It counts as protein assay. This is another data set of the same source.
The target in another series is Cytochrome P450 2C9 (Homo sapiens, UniProt P11712).
In the next series the target is T4, Bcl-2-related protein A1 (Mus musculus, UniProt Q07440).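 Further: confirmatory dose–response counterscreen on Bfl-1, used to check hits from a UBC13 polyubiquitin inhibitor campaign.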
T4 sequence (Q07440 whole entry): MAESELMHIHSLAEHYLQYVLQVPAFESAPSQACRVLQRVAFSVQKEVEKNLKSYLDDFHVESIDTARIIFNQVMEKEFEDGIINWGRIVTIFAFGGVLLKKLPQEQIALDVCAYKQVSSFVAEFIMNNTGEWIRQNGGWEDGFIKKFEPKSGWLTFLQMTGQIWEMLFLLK
It counts as functional.

In series [10] the target is T5, Ubiquitin-conjugating enzyme E2 N (Homo sapiens, UniProt P61088).
T5 sequence (P61088 whole entry): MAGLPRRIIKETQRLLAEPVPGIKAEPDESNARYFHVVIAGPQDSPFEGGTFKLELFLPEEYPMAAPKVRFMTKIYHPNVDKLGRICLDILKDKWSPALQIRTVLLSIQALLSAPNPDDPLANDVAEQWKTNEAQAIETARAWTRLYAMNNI
It counts as functional.

For series [11], the target named is T5, Ubiquitin-conjugating enzyme E2 N. It counts as functional. This is another data set of the same source.
A further series has as its target Cytochrome P450 2D6 (Homo sapiens, UniProt P10635).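 Further: CYP2D6 member of a cytochrome P450 panel assay.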
For the next series, the target named is Nonstructural protein 1 (Influenza A virus, UniProt Q194T2). It counts as functional, Influenza A virus (A/California/07/2009(H1N1)).
In series [12] the target is T6, DNA repair protein RAD52 homolog (Homo sapiens, UniProt P43351).
T6 sequence (P43351 whole entry): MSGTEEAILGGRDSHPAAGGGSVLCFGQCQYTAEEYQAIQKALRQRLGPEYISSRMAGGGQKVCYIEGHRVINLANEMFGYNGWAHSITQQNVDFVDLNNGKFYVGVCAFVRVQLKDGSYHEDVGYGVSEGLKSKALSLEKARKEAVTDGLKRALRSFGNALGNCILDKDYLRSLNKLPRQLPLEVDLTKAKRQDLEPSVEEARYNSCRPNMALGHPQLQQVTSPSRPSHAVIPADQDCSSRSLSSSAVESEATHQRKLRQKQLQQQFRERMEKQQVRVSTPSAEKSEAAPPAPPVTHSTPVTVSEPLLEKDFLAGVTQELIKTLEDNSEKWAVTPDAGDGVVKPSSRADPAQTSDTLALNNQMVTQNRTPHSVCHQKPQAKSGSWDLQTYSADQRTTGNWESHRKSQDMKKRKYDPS
It counts as functional, biochemical.

The target in series [13] is T7, SUMO-activating enzyme (Homo sapiens, UniProt Q9UBT2). Description: blockers of UBC9-mediated SUMO conjugation – biochemical, AlphaScreen, SUMOylation inhibitor project, confirmation (AID 2018). It counts as functional. On the technique in general: Alpha assays give light when donor and acceptor beads are brought close together.
Series [14] can be described thus: CCR5-tropic HIV-1 fusion blockers – cell-based, CCR5-tropic Env, dose response (AID 2279). It counts as functional.
Series [15] addresses T7, SUMO-activating enzyme. Description: blockers of SAE1/SAE2–UBC9 SUMO transfer – biochemical, HTRF, uHTS, primary screen (AID 2006). It counts as protein-complex assay.

G-protein coupled receptor 55, sequence (Q9Y2T6 whole entry): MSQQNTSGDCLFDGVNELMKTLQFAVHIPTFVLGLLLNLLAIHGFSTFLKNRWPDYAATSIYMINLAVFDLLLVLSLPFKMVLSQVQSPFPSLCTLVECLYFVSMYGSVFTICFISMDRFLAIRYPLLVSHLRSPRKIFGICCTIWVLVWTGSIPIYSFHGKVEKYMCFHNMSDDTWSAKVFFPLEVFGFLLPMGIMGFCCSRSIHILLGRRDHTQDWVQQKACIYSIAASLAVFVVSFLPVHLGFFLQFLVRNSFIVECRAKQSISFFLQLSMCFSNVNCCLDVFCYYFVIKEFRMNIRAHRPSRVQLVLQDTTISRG
Cytochrome P450 2C9, sequence (P11712 whole entry): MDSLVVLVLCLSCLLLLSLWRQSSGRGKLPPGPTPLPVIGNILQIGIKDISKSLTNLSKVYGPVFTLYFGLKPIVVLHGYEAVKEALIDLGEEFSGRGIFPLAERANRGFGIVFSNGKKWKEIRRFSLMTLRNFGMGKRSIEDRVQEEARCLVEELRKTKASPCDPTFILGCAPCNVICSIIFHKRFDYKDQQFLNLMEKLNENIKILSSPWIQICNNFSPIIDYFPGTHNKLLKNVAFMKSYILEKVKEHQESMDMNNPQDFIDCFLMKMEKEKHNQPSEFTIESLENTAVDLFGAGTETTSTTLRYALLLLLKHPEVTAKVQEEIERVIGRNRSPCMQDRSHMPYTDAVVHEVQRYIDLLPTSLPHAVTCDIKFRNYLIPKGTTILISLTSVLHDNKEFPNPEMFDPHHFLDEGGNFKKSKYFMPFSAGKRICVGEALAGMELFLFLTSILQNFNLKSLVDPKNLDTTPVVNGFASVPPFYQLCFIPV
Intestinal-type alkaline phosphatase (Mus musculus, UniProt P24822), sequence (P24822 whole entry): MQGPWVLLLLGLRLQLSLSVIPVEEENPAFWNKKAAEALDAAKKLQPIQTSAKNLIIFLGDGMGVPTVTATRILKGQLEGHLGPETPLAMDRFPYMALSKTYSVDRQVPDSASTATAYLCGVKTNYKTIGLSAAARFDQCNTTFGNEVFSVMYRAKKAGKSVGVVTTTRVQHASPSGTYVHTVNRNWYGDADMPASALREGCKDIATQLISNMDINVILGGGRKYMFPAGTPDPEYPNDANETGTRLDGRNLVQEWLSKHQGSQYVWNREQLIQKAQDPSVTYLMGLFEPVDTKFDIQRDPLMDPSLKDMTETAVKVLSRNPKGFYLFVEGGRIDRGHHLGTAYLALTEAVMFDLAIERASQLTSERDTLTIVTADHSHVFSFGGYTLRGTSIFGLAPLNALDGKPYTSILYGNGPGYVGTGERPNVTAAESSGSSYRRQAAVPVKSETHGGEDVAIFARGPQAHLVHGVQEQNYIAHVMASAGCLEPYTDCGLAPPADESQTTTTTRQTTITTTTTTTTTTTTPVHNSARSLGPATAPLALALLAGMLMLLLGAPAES
T3 sequence (Q00975 whole entry): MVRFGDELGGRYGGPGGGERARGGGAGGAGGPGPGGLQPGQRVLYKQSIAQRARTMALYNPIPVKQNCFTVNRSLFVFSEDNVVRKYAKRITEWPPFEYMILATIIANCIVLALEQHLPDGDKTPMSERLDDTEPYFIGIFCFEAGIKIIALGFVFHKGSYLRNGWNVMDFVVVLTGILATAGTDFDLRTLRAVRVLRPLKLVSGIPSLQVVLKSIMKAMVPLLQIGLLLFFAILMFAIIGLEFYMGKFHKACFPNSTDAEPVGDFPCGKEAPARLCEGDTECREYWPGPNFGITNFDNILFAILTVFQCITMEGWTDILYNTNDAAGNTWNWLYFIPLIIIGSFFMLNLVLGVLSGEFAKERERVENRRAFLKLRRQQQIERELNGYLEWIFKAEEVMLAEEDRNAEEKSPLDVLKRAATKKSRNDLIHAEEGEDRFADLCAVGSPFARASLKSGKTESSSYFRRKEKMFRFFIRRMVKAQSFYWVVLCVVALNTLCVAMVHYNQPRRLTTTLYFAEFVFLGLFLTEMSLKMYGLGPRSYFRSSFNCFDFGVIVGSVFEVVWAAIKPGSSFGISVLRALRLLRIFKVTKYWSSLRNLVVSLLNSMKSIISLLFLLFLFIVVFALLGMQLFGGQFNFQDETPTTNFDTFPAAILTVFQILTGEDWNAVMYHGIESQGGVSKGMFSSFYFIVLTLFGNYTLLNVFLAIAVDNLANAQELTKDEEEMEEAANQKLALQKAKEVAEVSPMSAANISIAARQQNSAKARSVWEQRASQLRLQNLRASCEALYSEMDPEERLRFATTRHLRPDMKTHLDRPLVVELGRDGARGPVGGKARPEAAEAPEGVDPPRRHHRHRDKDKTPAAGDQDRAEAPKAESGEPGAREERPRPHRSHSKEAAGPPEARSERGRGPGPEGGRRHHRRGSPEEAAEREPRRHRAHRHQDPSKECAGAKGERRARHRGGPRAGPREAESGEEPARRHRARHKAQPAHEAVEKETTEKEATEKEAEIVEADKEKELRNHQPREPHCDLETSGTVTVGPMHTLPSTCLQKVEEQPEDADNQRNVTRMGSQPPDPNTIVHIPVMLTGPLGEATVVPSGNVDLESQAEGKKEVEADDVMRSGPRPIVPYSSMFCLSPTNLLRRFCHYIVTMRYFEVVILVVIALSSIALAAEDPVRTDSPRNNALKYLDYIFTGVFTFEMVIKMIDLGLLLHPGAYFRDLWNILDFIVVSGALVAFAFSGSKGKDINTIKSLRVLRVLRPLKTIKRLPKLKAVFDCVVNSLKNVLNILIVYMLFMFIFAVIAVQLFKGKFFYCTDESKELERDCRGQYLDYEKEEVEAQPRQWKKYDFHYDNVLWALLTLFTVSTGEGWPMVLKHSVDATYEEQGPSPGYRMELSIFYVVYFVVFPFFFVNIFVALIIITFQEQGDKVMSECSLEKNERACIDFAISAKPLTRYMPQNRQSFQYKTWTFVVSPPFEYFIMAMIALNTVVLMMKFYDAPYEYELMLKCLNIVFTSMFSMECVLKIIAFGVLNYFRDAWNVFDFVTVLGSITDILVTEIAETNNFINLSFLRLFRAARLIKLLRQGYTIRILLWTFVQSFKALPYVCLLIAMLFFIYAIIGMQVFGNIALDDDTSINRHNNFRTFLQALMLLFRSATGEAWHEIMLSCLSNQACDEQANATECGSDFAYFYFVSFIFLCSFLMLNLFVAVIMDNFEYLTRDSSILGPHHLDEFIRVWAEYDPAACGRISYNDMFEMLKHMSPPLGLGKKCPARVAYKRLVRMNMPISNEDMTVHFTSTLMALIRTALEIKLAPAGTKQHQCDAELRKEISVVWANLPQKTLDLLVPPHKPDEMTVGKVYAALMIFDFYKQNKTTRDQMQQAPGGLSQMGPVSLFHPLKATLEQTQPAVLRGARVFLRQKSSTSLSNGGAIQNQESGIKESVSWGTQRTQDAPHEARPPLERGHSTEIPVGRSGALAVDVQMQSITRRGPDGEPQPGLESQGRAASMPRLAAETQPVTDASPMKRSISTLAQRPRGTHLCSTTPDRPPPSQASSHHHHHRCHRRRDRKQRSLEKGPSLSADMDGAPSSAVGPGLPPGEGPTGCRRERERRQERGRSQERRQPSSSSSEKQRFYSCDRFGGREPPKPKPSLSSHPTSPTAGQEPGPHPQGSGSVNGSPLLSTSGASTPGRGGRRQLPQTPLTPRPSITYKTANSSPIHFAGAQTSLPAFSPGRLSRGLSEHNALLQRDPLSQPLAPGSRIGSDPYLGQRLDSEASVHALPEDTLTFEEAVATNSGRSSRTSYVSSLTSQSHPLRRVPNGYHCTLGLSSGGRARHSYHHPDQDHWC
T3 sequence (Q02410 whole entry): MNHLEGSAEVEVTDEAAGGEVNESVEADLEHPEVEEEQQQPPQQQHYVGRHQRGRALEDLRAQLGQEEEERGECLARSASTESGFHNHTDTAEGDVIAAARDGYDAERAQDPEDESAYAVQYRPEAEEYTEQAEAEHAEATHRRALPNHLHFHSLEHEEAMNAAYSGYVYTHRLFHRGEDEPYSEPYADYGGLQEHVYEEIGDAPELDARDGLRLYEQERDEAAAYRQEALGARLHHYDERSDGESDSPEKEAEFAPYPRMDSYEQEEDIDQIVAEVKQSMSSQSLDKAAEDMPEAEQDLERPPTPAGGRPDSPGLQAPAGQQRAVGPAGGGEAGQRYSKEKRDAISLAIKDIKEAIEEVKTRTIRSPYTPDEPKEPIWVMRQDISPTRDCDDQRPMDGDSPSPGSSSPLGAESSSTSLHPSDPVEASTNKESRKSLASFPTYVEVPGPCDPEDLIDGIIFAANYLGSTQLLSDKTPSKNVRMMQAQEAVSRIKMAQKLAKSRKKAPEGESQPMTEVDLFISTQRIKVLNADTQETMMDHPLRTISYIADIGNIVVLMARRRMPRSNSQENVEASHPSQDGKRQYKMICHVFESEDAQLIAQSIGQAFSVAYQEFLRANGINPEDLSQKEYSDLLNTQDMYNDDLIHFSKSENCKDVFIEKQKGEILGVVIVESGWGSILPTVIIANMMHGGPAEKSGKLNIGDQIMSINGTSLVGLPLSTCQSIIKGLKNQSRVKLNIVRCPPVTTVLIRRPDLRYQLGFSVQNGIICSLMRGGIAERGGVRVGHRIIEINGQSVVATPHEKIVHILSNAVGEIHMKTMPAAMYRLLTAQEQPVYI
Intestinal-type alkaline phosphatase (Homo sapiens, UniProt P09923), sequence (P09923 whole entry): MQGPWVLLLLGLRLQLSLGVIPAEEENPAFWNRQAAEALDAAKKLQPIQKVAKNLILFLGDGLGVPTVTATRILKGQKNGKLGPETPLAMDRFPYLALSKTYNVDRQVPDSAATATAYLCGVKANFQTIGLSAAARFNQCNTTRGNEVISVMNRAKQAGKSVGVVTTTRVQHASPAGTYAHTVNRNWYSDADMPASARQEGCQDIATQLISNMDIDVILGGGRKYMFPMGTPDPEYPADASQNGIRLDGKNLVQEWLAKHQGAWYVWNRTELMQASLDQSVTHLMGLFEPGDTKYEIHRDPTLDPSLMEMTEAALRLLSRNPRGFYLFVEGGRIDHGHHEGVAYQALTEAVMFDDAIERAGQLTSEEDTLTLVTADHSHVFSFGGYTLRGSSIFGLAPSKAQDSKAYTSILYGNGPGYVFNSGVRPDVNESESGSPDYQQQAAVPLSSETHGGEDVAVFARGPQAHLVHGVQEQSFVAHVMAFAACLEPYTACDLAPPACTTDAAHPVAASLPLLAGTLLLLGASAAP

The term EC50 denotes the concentration needed to bring the measured effect to its halfway point. In the case of `Cc1cc(/C=C2\SC(=S)N(C)C2=O)c(C)n1-c1ccccc1O`, the concentration for a half-maximal effect (EC50) in series [1] was 8.37 µM (active); on Streptokinase A it was 17.8 µM (active); in the series with Streptococcus, 16.1 µM (active); on Troponin, cardiac muscle, 4.96 µM (active).
As a reminder, the IC50 is the midpoint of a concentration-inhibition curve. Consider `O=C1NN(c2cccc(Br)c2)C(=O)/C1=C/c1ccc(-c2cc([N+](=O)[O-])ccc2O)o1`, for which the IC50 in [2] is 4.7 µM (active); in series [3], > 100 µM (inactive); in [4], > 100 µM (inactive).
Consider `CCN1CCN(c2ccc([N+](=O)[O-])c(Sc3nc4ccccc4[nH]3)c2)CC1`, for which the concentration giving a half-maximal response (EC50) in series [5] is 4.1 µM (active); on Mu-type opioid receptor it was > 92.5 µM (inactive); in [6], > 92.5 µM (inactive).
As to `COc1cc(Br)c(-c2sc(Nc3ccccc3)n[n+]2-c2ccc(F)cc2)cc1OC`, the IC50 in series [7] is 11.9 µM (inactive).
Turning to `Cc1ccc(/C=C2\SC(=S)N(CCC(=O)NNC(=O)c3cccc(O)c3)C2=O)cc1`, the IC50 in series [8] is 16 µM (active); in [9], > 50 µM (inactive).
One may read the AC50 as the concentration giving half of the maximal activity seen. As to `Cc1cc(C)c(NC(=O)NC(=O)c2ccc(F)cc2)c(C)n1`, the AC50 entry on Cytochrome P450 2C9 is given as “inconclusive”.
On to `Cc1[nH]c(=S)c(C#N)c(-c2ccccc2)c1C(=O)Nc1ccccc1`, for which the IC50 at Bcl-2-related protein A1 was > 20 µM (inactive); in series [10], 13.9 µM (active); in series [11] it was > 20 µM (inactive).
In the case of `CC12CNCC(C)(CN(C(c3ccccc3)c3ccccc3)C1)C2`, the IC50 in series [7] is 5.62 µM (active).
With `COc1ccc(CNc2ccnc(-c3cccc(NS(C)(=O)=O)c3)n2)c(OC)c1`, the results for the AC50 at Cytochrome P450 2D6 and on Cytochrome P450 2C9 were 12.6 µM (inconclusive) and “inconclusive”, respectively.
Consider `N#Cc1c(SCC(=O)Nc2nc3ccccc3s2)sc2c(O)cc(O)nc12`, for which the IC50 in series [2] was 18.8 µM (active); in [3], > 100 µM (inactive); in series [4], > 100 µM (inactive).
In the case of `O=C(CSc1nnc2sc3ccccc3n12)NCc1ccco1`, the AC50 entry at Cytochrome P450 2C9 is on record as “inconclusive”.
For `O=C(/C=C/c1ccco1)NC(=S)Nc1ccccc1N1CCOCC1`, in [7], the half-inhibitory concentration (IC50) is 4.57 µM (active).
As for `O=C(CCNC(=O)c1ccccc1Cl)Nc1nc2ccccc2s1`, the IC50 on Bcl-2-related protein A1 is > 20 µM (inactive); in [10], 6.15 µM (active); in series [11], 8.02 µM (active).
With `CN(C)CCCNC(=O)c1ccc(-c2cc(O)c3ncccc3c2)cc1`, the 50% inhibitory concentration (IC50) on Bcl-2-related protein A1 is 7.49 µM (active); in series [10] it was 3.89 µM (active); in series [11], 3.15 µM (active); on Nonstructural protein 1, 4.25 µM (active). For the same compound, the AC50 in [12] was 0.849 µM (active).
For `CCn1cc(C(=O)NCCC(=O)NCCO)c(=O)c2cc3c(cc21)OCO3`, on Troponin, cardiac muscle, the EC50 was > 71.4 µM (inactive).
As to `CCOC(=O)C1=C(C)N=c2s/c(=C\c3ccc(OCC(=O)O)cc3)c(=O)n2C1c1ccc(OC(C)C)cc1` (stereo not drawn), the IC50 on SUMO-activating enzyme [13] is 10.1 µM (active); in series [14], 35.2 µM (active); at SUMO-activating enzyme [15], 26 µM (active).
`CCN(CC)c1ccc(/C=c2\sc3nnc(-c4ccccc4Cl)n3c2=O)cc1`: at Troponin, cardiac muscle, the EC50 is 0.191 µM (active).

Source of the values: ChEMBL document CHEMBL1201862, “PubChem BioAssay data set” (2004).
